In patent US12618095B2, “Medium for Bacillus cereus group detection” (SHIMADZU DIAGNOSTICS CORPORATION, priority 2020, dated 2026):

Tested on: B. cereus
Assay: Test Example 9: concentration of amphotericin B

Measured: Number of colonies

C[C@@H]1[C@H](O)[C@@H](C)/C=C/C=C/C=C/C=C/C=C/C=C/C=C/[C@H](O[C@@H]2O[C@H](C)[C@@H](O)[C@H](N)[C@@H]2O)C[C@@H]2O[C@](O)(C[C@@H](O)C[C@@H](O)[C@H](O)CC[C@@H](O)C[C@@H](O)CC(=O)O[C@H]1C)C[C@H](O)[C@H]2C(=O)O [Amphotericin B]
+: ATCC11778, Amphotericin B 0.1 mg, 24 hours, 10^3 cfu/mL | ATCC11778, Amphotericin B 0.1 mg, 24 hours, 10^4 cfu/mL | ATCC11778, Amphotericin B 0.1 mg, 24 hours, 10^5 cfu/mL | ATCC11778, Amphotericin B 0.1 mg, 44 hours, 10^3 cfu/mL | ATCC11778, Amphotericin B 0.1 mg, 44 hours, 10^4 cfu/mL | ATCC11778, Amphotericin B 0.1 mg, 44 hours, 10^5 cfu/mL | ATCC11778, Amphotericin B 1.0 mg, 24 hours, 10^3 cfu/mL | ATCC11778, Amphotericin B 1.0 mg, 24 hours, 10^4 cfu/mL | ATCC11778, Amphotericin B 1.0 mg, 24 hours, 10^5 cfu/mL | ATCC11778, Amphotericin B 1.0 mg, 44 hours, 10^3 cfu/mL | ATCC11778, Amphotericin B 1.0 mg, 44 hours, 10^4 cfu/mL | ATCC11778, Amphotericin B 1.0 mg, 44 hours, 10^5 cfu/mL | ATCC11778, Amphotericin B 10 mg, 24 hours, 10^3 cfu/mL | ATCC11778, Amphotericin B 10 mg, 24 hours, 10^4 cfu/mL | ATCC11778, Amphotericin B 10 mg, 24 hours, 10^5 cfu/mL | ATCC11778, Amphotericin B 10 mg, 44 hours, 10^3 cfu/mL | ATCC11778, Amphotericin B 10 mg, 44 hours, 10^4 cfu/mL | ATCC11778, Amphotericin B 10 mg, 44 hours, 10^5 cfu/mL | ATCC19637, Amphotericin B 0.1 mg, 24 hours, 10^3 cfu/mL | ATCC19637, Amphotericin B 0.1 mg, 24 hours, 10^4 cfu/mL | ATCC19637, Amphotericin B 0.1 mg, 24 hours, 10^5 cfu/mL | ATCC19637, Amphotericin B 0.1 mg, 44 hours, 10^3 cfu/mL | ATCC19637, Amphotericin B 0.1 mg, 44 hours, 10^4 cfu/mL | ATCC19637, Amphotericin B 0.1 mg, 44 hours, 10^5 cfu/mL | ATCC19637, Amphotericin B 1.0 mg, 24 hours, 10^3 cfu/mL | ATCC19637, Amphotericin B 1.0 mg, 24 hours, 10^4 cfu/mL | ATCC19637, Amphotericin B 1.0 mg, 24 hours, 10^5 cfu/mL | ATCC19637, Amphotericin B 1.0 mg, 44 hours, 10^3 cfu/mL | ATCC19637, Amphotericin B 1.0 mg, 44 hours, 10^4 cfu/mL | ATCC19637, Amphotericin B 1.0 mg, 44 hours, 10^5 cfu/mL | ATCC19637, Amphotericin B 10 mg, 24 hours, 10^3 cfu/mL | ATCC19637, Amphotericin B 10 mg, 24 hours, 10^4 cfu/mL | ATCC19637, Amphotericin B 10 mg, 24 hours, 10^5 cfu/mL | ATCC19637, Amphotericin B 10 mg, 44 hours, 10^3 cfu/mL | ATCC19637, Amphotericin B 10 mg, 44 hours, 10^4 cfu/mL | ATCC19637, Amphotericin B 10 mg, 44 hours, 10^5 cfu/mL
37: ATCC11778, Amphotericin B 0.1 mg, 24 hours, 10^2 cfu/mL | ATCC11778, Amphotericin B 0.1 mg, 44 hours, 10^2 cfu/mL
39: ATCC19637, Amphotericin B 10 mg, 24 hours, 10^2 cfu/mL | ATCC19637, Amphotericin B 10 mg, 44 hours, 10^2 cfu/mL
49: ATCC11778, Amphotericin B 10 mg, 24 hours, 10^2 cfu/mL | ATCC11778, Amphotericin B 10 mg, 44 hours, 10^2 cfu/mL
35: ATCC19637, Amphotericin B 1.0 mg, 24 hours, 10^2 cfu/mL | ATCC19637, Amphotericin B 1.0 mg, 44 hours, 10^2 cfu/mL
36: ATCC19637, Amphotericin B 0.1 mg, 24 hours, 10^2 cfu/mL | ATCC19637, Amphotericin B 0.1 mg, 44 hours, 10^2 cfu/mL
51: ATCC11778, Amphotericin B 1.0 mg, 24 hours, 10^2 cfu/mL | ATCC11778, Amphotericin B 1.0 mg, 44 hours, 10^2 cfu/mL
